From BindingDB's records for doi:10.1074/jbc.M113.534859 (Karlsruhe Institute of Technology, 2014)

biological target: T1, Androgen receptor [646-919] (Human, UniProt P10275); assay: Fluorescence Polarization Assay; settings: pH 6.5
T1 construct: 646-919
T1 sequence (P10275 whole entry): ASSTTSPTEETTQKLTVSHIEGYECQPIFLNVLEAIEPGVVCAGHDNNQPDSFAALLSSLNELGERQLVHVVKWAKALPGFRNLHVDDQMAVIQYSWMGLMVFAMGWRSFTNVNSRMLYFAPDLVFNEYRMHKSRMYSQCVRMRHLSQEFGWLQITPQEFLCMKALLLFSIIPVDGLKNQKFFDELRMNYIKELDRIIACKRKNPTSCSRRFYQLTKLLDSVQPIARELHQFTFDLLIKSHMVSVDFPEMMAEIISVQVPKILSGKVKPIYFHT
Experimental: For the fluorescence polarization experiments, 5 nM fluorescently labeled Bag-1L (Bag-1L(1-20), fluorescein isothiocyanate (FITC)-[…]; Bag-1L(61-80), FITC-[…]) or SRC-2 peptide (FITC-[…]) was incubated with serially diluted AR-LBD (4 to 0.4 μM) in binding buffer (50 mM NaPO4, pH 6.5, 50 mM KCl, 1 mM DTT) and 10 μM DHT. The samples were then equilibrated for 45 min at ambient temperature. For the competition experiments, 400 to 0.4 nM Bag-1L core (GARRPR) or SRC-2 peptides ([…]) were incubated with 4 μM AR-LBD and 5 nM fluorescent Bag-1 or SRC-2 peptide. Binding was measured using polarization (excitation λ = 485 nm, emission λ = 530 nm) on a Synergy H1 hybrid reader (Biotek).

Row | Kd [µM] | Substance
1 | 2.8 | H-HDSKGQTKLLQLLTTKSDQM-OH
2 | 2 | H-MAQRGGARRPRGDRERLGSR-OH [Bag-1L (1-20)]
3 | 3.3 | H-RGAAAGARRPRMKKKTRRRS-OH [Bag-1L (61-80)]
